Data: patent US20240101528A1, “SUBSTITUTED PYRAZOLO PIPERIDINE CARBOXYLIC ACIDS” (BAYER AKTIENGESELLSCHAFT, priority 2020, published 2024)
pEC50: −log10 of the molar value. Structures can show the parent of a compound that is named as a salt.

Target: T1, recombinant guanylate cyclase reporter cell line (Rattus norvegicus, UniProt P20595)
T1 construct: expressed in transfected cells
T1 sequence (P20595 1-619): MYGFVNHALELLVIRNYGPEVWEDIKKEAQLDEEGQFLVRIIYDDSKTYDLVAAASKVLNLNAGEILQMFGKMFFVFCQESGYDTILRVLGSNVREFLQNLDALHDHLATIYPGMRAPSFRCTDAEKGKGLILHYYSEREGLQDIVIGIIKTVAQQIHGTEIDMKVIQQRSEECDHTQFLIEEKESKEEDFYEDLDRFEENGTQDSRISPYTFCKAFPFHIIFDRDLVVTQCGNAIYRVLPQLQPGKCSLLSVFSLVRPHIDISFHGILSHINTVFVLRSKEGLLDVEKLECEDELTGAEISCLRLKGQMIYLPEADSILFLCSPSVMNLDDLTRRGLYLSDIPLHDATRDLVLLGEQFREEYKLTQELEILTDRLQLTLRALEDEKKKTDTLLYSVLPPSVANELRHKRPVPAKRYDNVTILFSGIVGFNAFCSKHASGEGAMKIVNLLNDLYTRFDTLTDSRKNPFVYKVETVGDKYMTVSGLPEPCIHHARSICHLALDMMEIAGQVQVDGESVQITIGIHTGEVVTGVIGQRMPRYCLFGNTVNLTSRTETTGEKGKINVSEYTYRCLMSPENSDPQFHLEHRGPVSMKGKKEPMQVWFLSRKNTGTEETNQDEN
T1 sequence (P19686 1-690 partner): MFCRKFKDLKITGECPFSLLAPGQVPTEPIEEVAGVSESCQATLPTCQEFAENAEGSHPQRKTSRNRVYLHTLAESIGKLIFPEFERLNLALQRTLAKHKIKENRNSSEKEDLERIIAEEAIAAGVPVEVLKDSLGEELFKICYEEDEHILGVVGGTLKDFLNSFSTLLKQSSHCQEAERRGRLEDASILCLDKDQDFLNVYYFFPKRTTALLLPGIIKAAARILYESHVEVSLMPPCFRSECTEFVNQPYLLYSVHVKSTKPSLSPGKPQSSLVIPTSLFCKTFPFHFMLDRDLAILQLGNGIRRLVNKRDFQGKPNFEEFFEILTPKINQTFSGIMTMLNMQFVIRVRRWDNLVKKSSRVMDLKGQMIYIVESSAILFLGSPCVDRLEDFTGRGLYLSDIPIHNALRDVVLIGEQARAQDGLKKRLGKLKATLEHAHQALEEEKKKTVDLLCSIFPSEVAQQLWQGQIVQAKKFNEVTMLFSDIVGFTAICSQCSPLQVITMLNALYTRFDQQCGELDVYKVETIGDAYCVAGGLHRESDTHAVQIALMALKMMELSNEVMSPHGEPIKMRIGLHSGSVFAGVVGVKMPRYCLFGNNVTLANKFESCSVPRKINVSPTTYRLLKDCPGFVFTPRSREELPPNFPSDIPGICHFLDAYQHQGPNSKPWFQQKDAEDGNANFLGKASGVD
Experiment: Effect on a recombinant guanylate cyclase reporter cell line
Type: cell-based
Settings: for pEC50: half maximal effective concentration; for MEC: minimum effective concentration
Method: B-1. Effect on a Recombinant Guanylate Cyclase Reporter Cell Line
The cellular activity of the compounds according to the invention was determined using a recombinant guanylate cyclase reporter cell line, as described in F. Wunder et al., Anal. Biochem. 339, 104-112 (2005).

Compound | pEC50 | MEC [nM]
CN1CCN(c2ccc(-c3ccc(Cl)cc3N3CCCC(n4ncc(C(=O)O)c4C(F)F)C3)cc2)CC1 (single isomer, unassigned; enantiomer 2) [Example 2, 1-{1-[4-Chloro-4′-(4-methylpiperazin-1-yl)[biphenyl]-2-yl]piperidin-3-yl}-5-(difluoromethyl)-1H-pyrazole-4-carboxylic acid hydrochloride (Enantiomer 2)] | 7.60 | 7.0
CCN1CCN(c2ccc(-c3ccc(Cl)cc3N3CC(n4ncc(C(=O)O)c4C(F)F)CC(F)(F)C3)cc2)CC1 (single isomer, unassigned; enantiomer 2) [Example 53, 1-{1-[4-chloro-4′-(4-ethylpiperazin-1-yl)[biphenyl]-2-yl]-5,5-difluoropiperidin-3-yl}-5-(difluoromethyl)-1H-pyrazole-4-carboxylic acid hydrochloride (Enantiomer 2)] | 7.47 | 10.0
Cc1cc(N2CCN(CC(F)(F)F)CC2)ncc1-c1ccc(Cl)cc1N1CCCC(n2ncc(C(=O)O)c2C(F)F)C1 (single isomer, unassigned; enantiomer 2) [Example 69, 1-[1-(5-Chloro-2-{4-methyl-6-[4-(2,2,2-trifluoroethyl)piperazin-1-yl]pyridin-3-yl}phenyl)piperidin-3-yl]-5-(difluoromethyl)-1H-pyrazole-4-carboxylic acid hydrochloride (Enantiomer 2)] | 7.34 | 30.0
O=C(O)c1cnn(C2CCCN(c3cc(Cl)ccc3-c3ccc(N4CCN(CC5(C(F)(F)F)CC5)CC4)cc3)C2)c1C(F)F (single isomer, unassigned; enantiomer 2) [Example 40, 1-{1-[4-Chloro-4′-(4-{[1-(trifluoromethyl)cyclopropyl]methyl}piperazin-1-yl) [biphenyl]-2-yl]piperidin-3-yl}-5-(difluoromethyl)-1H-pyrazole-4-carboxylic acid hydrochloride (Enantiomer 2)] | 7.93 | 1.0
CC(C)N1CCN(c2ccc(-c3ccc(Cl)cc3N3CCCC(n4ncc(C(=O)O)c4C(F)F)C3)cc2)CC1 (single isomer, unassigned; enantiomer 2) [Example 6, 1-{1-[4-Chloro-4′-(4-isopropylpiperazin-1-yl)[biphenyl]-2-yl]piperidin-3-yl}-5-(difluoromethyl)-1H-pyrazole-4-carboxylic acid (Enantiomer 2)] | 7.47 | 3.0
O=C(O)c1cnn(C2CCCN(c3cc(Cl)ccc3-c3ccc(N4CCN(C5CC5)CC4)cc3)C2)c1C(F)F (single isomer, unassigned; enantiomer 1) [Example 8, 1-{1-[4-Chloro-4′-(4-cyclopropylpiperazin-1-yl)[biphenyl]-2-yl]piperidin-3-yl}-5-(difluoromethyl)-1H-pyrazole-4-carboxylic acid hydrochloride (Enantiomer 1)] | 7.61 | 3.0
O=C(O)c1cnn(C2CCCN(c3cc(Cl)ccc3-c3ccc(N4CCN(C5COC5)CC4)cc3)C2)c1C(F)F (single isomer, unassigned; enantiomer 2) [Example 43, 1-(1-{4-Chloro-4′-[4-(oxetan-3-yl)piperazin-1-yl][biphenyl]-2-yl}piperidin-3-yl)-5-(difluoromethyl)-1H-pyrazole-4-carboxylic acid hydrochloride (Enantiomer 2)] | 7.37 | 10.0

Compounds with a higher pEC50, results first:

pEC50 | MEC [nM] | Compound
> 9.00 | <0.3 | O=C(O)c1cnn(C2CCCN(c3cc(Cl)ccc3-c3ccc(N4CCN(CCC(F)(F)F)CC4)nc3)C2)c1C(F)F (single isomer, unassigned; enantiomer 2) [Example 67, 1-[1-(5-Chloro-2-{6-[4-(3,3,3-trifluoropropyl)piperazin-1-yl]pyridin-3-yl}phenyl)piperidin-3-yl]-5-(difluoromethyl)-1H-pyrazole-4-carboxylic acid hydrochloride (Enantiomer 2)]
8.12 | 3.0 | CC(C)CN1CCN(c2ccc(-c3ccc(Cl)cc3N3CCCC(n4ncc(C(=O)O)c4C(F)F)C3)cn2)CC1 (single isomer, unassigned; enantiomer 2) [Example 62, 1-(1-{5-Chloro-2-[6-(4-isobutylpiperazin-1-yl)pyridin-3-yl]phenyl}piperidin-3-yl)-5-(difluoromethyl)-1H-pyrazole-4-carboxylic acid hydrochloride (Enantiomer 2)]
8.70 | 0.3 | O=C(O)c1cnn(C2CCCN(c3cc(Cl)ccc3-c3ccc(N4CCN(CC5CC5(F)F)CC4)cc3)C2)c1C(F)F (single isomer, unassigned; diastereomer 3) [Example 30, 1-{1-[4-Chloro-4′-(4-{[2,2-difluorocyclopropyl]methyl}piperazin-1-yl)[biphenyl]-2-yl]piperidin-3-yl}-5-(difluoromethyl)-1H-pyrazole-4-carboxylic acid hydrochloride (Diastereomer 3)]
8.17 | 0.6 | O=C(O)c1cnn(C2CCCN(c3cc(Cl)ccc3-c3ccc(N4CCN(CC5CC(F)(F)C5)CC4)cc3)C2)c1C(F)F (single isomer, unassigned; enantiomer 1) [Example 15, 1-[1-(4-Chloro-4′-{4-[(3,3-difluorocyclobutyl)methyl]piperazin-1-yl}[biphenyl]-2-yl)piperidin-3-yl]-5-(difluoromethyl)-1H-pyrazole-4-carboxylic acid hydrochloride (Enantiomer 1)]
8.57 | 0.3 | O=C(O)c1cnn(C2CCCN(c3cc(Cl)ccc3-c3ccc(N4CCN(CC5CC5F)CC4)cc3)C2)c1C(F)F (mixture of isomers) [Example 32, 1-[1-[5-chloro-2-[4-[4-[(trans-2-fluorocyclopropyl)methyl]piperazin-1-yl]phenyl]phenyl]-3-piperidyl]-5-(difluoromethyl)pyrazole-4-carboxylic acid hydrochloride (Diastereoisomeric mixture 2)]
8.08 | 3.0 | CC(C)CN1CCN(c2ccc(-c3ccc(Cl)cc3N3CC(n4ncc(C(=O)O)c4C(F)F)CC(F)(F)C3)cc2)CC1 (single isomer, unassigned; enantiomer 1) [Example 54, 1-{1-[4-Chloro-4′-(4-isobutylpiperazin-1-yl)[biphenyl]-2-yl]-5,5-difluoropiperidin-3-yl}-5-(difluoromethyl)-1H-pyrazole-4-carboxylic acid hydrochloride (Enantiomer 1)]
8.19 | 1.0 | O=C(O)c1cnn(C2CCCN(c3cc(Cl)ccc3-c3ccc(N4CCN(CCOC(F)(F)F)CC4)cc3)C2)c1C(F)F (single isomer, unassigned; enantiomer 2) [Example 26, 1-[1-(4-Chloro-4′-{4-[2-(trifluoromethoxy)ethyl]piperazin-1-yl}[biphenyl]-2-yl)piperidin-3-yl]-5-(difluoromethyl)-1H-pyrazole-4-carboxylic acid hydrochloride (Enantiomer 2)]
